According to US9102622B2 (University of Connecticut, priority 2006, dated 2015):
pIC50, pKi: −log10 of the molar value. Where two headings read alike, the source gives them in different places.

What was measured:
[1] = molecular target: fatty acid amide hydrolase (FAAH) (Rattus norvegicus (Rat), UniProt P97612); experiment: FAAH enzyme assay: inhibition of anandamide (AEA) hydrolysis, arachidonic acid quantified by HPLC; assay type: biochemical; details: for inhibition at 100 µM: inhibitor 100 μM; for inhibition at 100 µM / inhibition at 0.1 µM: partially purified rat brain FAAH, 15 min, read-out: % Inhibition (Concentration); for inhibition at 0.1 µM: inhibitor 100 nM
Procedure: The resulting supernatant is injected onto the HPLC.

[2] = eight-point assay, anandamide hydrolysis by FAAH, read-out: IC50
[3] = eight-point assay, calculated with Prizm software, read-out: Ki

fatty acid amide hydrolase (FAAH), sequence (P97612 whole entry): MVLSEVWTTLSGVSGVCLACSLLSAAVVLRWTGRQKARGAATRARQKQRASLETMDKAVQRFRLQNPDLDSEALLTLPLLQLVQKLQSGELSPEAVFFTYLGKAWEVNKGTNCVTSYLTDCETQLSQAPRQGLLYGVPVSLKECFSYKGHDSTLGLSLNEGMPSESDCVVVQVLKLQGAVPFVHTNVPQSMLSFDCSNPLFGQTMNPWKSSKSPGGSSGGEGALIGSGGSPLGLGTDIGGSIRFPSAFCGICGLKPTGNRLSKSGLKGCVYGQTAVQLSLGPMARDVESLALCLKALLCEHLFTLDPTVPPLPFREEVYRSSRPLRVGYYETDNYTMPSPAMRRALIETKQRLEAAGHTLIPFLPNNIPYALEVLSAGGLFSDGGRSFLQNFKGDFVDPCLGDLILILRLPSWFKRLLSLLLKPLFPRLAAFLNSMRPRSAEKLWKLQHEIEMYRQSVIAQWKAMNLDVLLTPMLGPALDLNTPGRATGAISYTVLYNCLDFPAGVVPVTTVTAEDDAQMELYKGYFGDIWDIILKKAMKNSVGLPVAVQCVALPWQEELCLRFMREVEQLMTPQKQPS

SMILES | pIC50 [1, 2] | pKi [1, 3] | inhibition at 100 µM ([1]; one-point assay) | other results
O=C(CCCCCCOc1ccc(OCc2ccccc2)cc1)C(F)(F)F [Compound 23.4, 1,1,1-Trifluoro-8-[4-(Benzyloxy)phenoxy]-2-octanone] | 4.93 | 6.08 | 88% | melting point: 82 to 83 °C
O=S(=O)(F)CCCCOc1ccccc1 [Compound 17, 4-Phenoxybutylsulfonyl fluoride] | 6.65 | 7.28 | 100% | melting point: 74 to 76 °C
O=S(=O)(Cl)CCCCCCCc1ccc(OCc2ccccc2)cc1 [Compound 12.1, 7-(4-Benzyloxy-phenyl)-heptanesulfonyl chloride] | 4.27 | 4.90 | 99% | melting point: 33 to 35 °C
O=C(CCCCOc1ccccc1O)C(F)(F)F [Compound 24.9, 1,1,1-Trifluoro-6-[2-(hydroxy)phenoxy]-2-hexanone] | 4.62 | 5.80 | 60% | melting point: 51 to 52 °C
O=C(NCCCc1ccccc1)Nc1ccccn1 [Compound 59.2, N-(3-phenylpropyl)-N′-(2-pyridinyl)-urea] | – | – | – | melting point: 127 to 128 °C
Oc1cccc(OCCCC(O)(O)C(F)(F)F)c1 (hydrate or solvate) [Compound 24.5, 1,1,1-Trifluoro-2,2-dihydroxy-5-[3-(hydroxy)phenoxy]pentane] | – | – | – | melting point: 76 to 77 °C
O=S(=O)(F)CCCCCCCc1ccc(O)cc1 [Compound 14.1, 7-(4-Hydroxy-phenyl)-heptanesulfonyl fluoride] | – | – | 100% | melting point: 47 to 51 °C
O=C(NCCCc1ccccc1)NCc1ccccn1 [Compound 59.1, N-(3-phenylpropyl)-N′-(2-pyridinylmethyl)-urea] | – | – | – | melting point: 89 to 90 °C
O=C(CCCCCCOc1ccccc1)c1nnc(CO)o1 [Compound 74.1, 1-(5-hydroxymethyl-1,3,4-oxadiazol-2-yl)-7-phenoxy-heptan-1-one] | 7.82 | 9.00 | 96% | –
O=S(=O)(Cl)CCCCCc1ccc(OCc2ccccc2)cc1 [Compound 12.4, 5-(4-Benzyloxy-phenyl)-pentanesulfonyl chloride] | – | – | 95% | –
O=C(Nc1ccc(I)cc1)Oc1ccccc1 [Compound 48.6, (4-Iodophenyl)carbamic acid phenyl ester] | – | – | 84% | –
O=S(=O)(F)CCCCCCCc1ccccc1OCc1ccccc1 [Compound 13.3, 7-(2-Benzyloxy-phenyl)-heptanesulfonyl fluoride] | – | – | 100% | pIC50 [1]: 6.71; pKi [1]: 7.34
O=C(CCCCCCOc1ccc(O)cc1)c1nnc(COCc2ccccc2)o1 [Compound 74.2, 1-(5-benzyloxymethyl-1,3,4-oxadiazol-2-yl)-7-(4-hydroxy-phenoxy)-heptan-1-one] | 7.41 | 8.52 | 92% | –
O=S(=O)(F)CCCCCCCc1cccc(OCc2ccccc2)c1 [Compound 13.2, 7-(3-Benzyloxy-phenyl)-heptanesulfonyl fluoride] | – | – | 97% | –
OC(O)(c1ccccn1)C(F)(F)CCCCOc1ccccc1 [Compound 89.9 Hydrate form] | 7.41 | 7.92 | – | inhibition at 0.1 µM ([1]; one-point assay): 63%
O=C(Nc1ccc(Br)cc1)OCc1ccccc1 [Compound 48.3, (4-Bromophenyl)carbamic acid benzyl ester] | – | – | 36% | –

SMILES | pIC50 [1, 2] | pKi [1, 3] | inhibition at 100 µM ([1]; one-point assay) | other results
O=C(CCCCCOc1ccccc1O)C(F)(F)F [Compound 24.10, 1,1,1-Trifluoro-7-[2-(hydroxy)phenoxy]-2-heptanone] | 4.58 | 5.74 | 82% | –
O=C(CCCOc1ccc(O)cc1)C(F)(F)F [Compound 24.1, 1,1,1-Trifluoro-5-[4-(hydroxy)phenoxy]-2-pentanone] | 4.83 | 5.77 | 68% | –
O=C(CCCCOc1cccc(O)c1)C(F)(F)F [Compound 24.6, 1,1,1-Trifluoro-6-[3-(hydroxy)phenoxy]-2-hexanone] | 4.53 | 5.68 | 85% | –
O=C(c1cccc(-c2cccc(OCc3ccccc3)c2)c1)C(F)(F)F [Compound 30] | – | – | 33% | –
O=S(=O)(F)CCCCCCCc1ccccc1O [Compound 14.3, 7-(2-Hydroxy-phenyl)-heptanesulfonyl fluoride] | 7.27 | 7.89 | 100% | –
CCCCCCC(C)(C)c1cc(O)c(-c2ccc(NC(=O)OCC)cc2)c(O)c1 [Compound 53.2, 2′,6′-Dihydroxy-4′-(1,1-dimethylheptyl)[1,1′-biphenyl]-4-yl carbamic acid ethyl ester] | – | – | 15% | –
O=C(CCCOc1cccc(OCc2ccccc2)c1)C(F)(F)F [Compound 23.5, 1,1,1-Trifluoro-5-[3-(Benzyloxy)phenoxy]-2-pentanone] | 5.16 | 6.11 | 93% | –
CCCCCc1cc(OC)c(-c2ccc(C(=O)C(F)(F)F)cc2)c(OC)c1 [Compound 39.2, 1-(2′,6′-Dimethoxy-4′-pentylbiphenyl-4-yl)-2,2,2-trifluoroethanone] | – | – | 57% | –
O=C(CCCCCCOc1ccccc1)c1nnc(COCc2ccccc2)o1 [Compound 73.1, 7-(Phenoxy)-1-(5-benzyloxymethyl-1,3,4-oxadiazol-2-yl)-heptan-1-one] | 7.60 | 8.70 | 94% | –
O=S(=O)(F)CCCCCCCCc1ccccc1 [Compound 4.3, 8-Phenyl-octanesulfonyl fluoride, reference compound] | – | – | – | % Inhibition (Concentration) ([1]; one-point assay, concentration not given): 24%
O=C(CCCCCOc1cccc(OCc2ccccc2)c1)C(F)(F)F [Compound 23.7, 1,1,1-Trifluoro-7-[3-(Benzyloxy)phenoxy]-2-heptanone] | 6.33 | 7.28 | 96% | –
O=C(CCCCCOc1ccc(O)cc1)C(F)(F)F [Compound 24.3, 1,1,1-Trifluoro-7-[4-(hydroxy)phenoxy]-2-heptanone] | 4.94 | 6.10 | 86% | –
CCCCCCC(C)(C)c1cc(O)c(-c2ccc(C(=O)C(F)(F)F)cc2)c(O)c1 [Compound 40.1, 1-(2′,6′-dihydroxy-4′-(2-methyloctan-2-yl)biphenyl-4-yl)-2,2,2-trifluoroethanone] | – | – | 36% | –
O=C(CCCc1ccccc1)C(F)(F)F [Compound 27.1, 1,1,1-Trifluoro-5-phenyl-2-pentanone] | 4.16 | 5.34 | 46% | –
O=C(NCc1ccc(Br)cc1)OCc1ccccc1 [Compound 57.2, (4-Bromobenzyl)carbamic acid benzyl ester] | – | – | 89% | –
O=C(CCCOc1ccccc1)C(F)(F)F [Compound 23.11, 1,1,1-Trifluoro-5-phenoxy-2-pentanone] | 4.95 | 5.92 | 79% | –

Second part, led by results:

pIC50 [1, 2] | pKi [1, 3] | inhibition at 100 µM ([1]; one-point assay) | SMILES | other results
– | – | 42% | O=C1c2ccccc2S(=O)(=O)N1Cc1ccccc1 [Compound 83.1, N-(Phenylmethyl)saccharin] | –
– | – | 94% | O=C(c1cccc(Br)n1)C(F)(F)c1ccc(-c2ccccc2)cc1 [Compound 93.7, 2-(Biphenyl-4-yl)-1-(6-bromopyridin-2-yl)-2,2-difluoroethanone] | –
6.64 | 7.15 | 87% | CC(=O)C(F)(F)CCCCCOc1ccccc1 [Compound 89.4, 3,3-difluoro-8-phenoxy-2-octanone] | –
4.82 | 5.34 | 86% | CCOC(=O)C(=O)c1ccc(-c2ccccc2)cc1 [Compound 91.1, Ethyl 2-(biphenyl-4-yl)-2-oxoacetate] | –
6.79 | 7.28 | – | O=C(c1cccnc1)C(F)(F)CCCCOc1ccccc1 [Compound 89.10, 2,2-Difluoro-6-phenoxy-1-(pyridin-3-yl)-hexan-1-one] | inhibition at 0.1 µM ([1]; one-point assay): 33%
6.51 | 7.00 | – | Cc1nnc(C(=O)C(F)(F)CCCCOc2ccccc2)o1 [Compound 89.12] | inhibition at 0.1 µM ([1]; one-point assay): 20%
4.96 | – | 87% | O=C1c2ccccc2S(=O)(=O)N1CCCCOc1ccc(OCc2ccccc2)cc1 [Compound 83.3, N-[4-(4-Benzyloxy-phenoxy)-butyl]saccharin] | –
7.42 | – | – | Cc1nnc(C(=O)C(F)(F)CCCCOc2cccc(OCc3ccccc3)c2)o1 [Compound 89.13] | –
– | – | 100% | CCOC(=O)C(=O)CCCCOc1cccc(OCc2ccccc2)c1 [Compound 87.1] | –
6.68 | 7.19 | – | Cc1nnc(C(=O)C(F)(F)c2ccc(-c3ccccc3)cc2)o1 [Compound 93.1, 2-(Biphenyl-4-yl)-2,2-difluoro-1-(5-methyl-1,3,4-oxadiazol-2-yl)ethanone] | inhibition at 0.1 µM ([1]; one-point assay): 41%
4.94 | – | 91% | O=C1c2ccccc2S(=O)(=O)N1CCCCOc1ccccc1 [Compound 83.2, N-(4-Phenoxy-butyl)saccharin] | –
5.78 | 6.28 | 97% | Cc1nnc(C(=O)C(F)(F)c2ccc(Br)cc2)o1 [Compound 93.5, 2-(4-Bromophenyl)-2,2-difluoro-1-(5-methyl-1,3,4-oxadiazol-2-yl)ethanone] | –
7.62 | 8.15 | – | O=C(c1cccnc1)C(F)(F)CCCCOc1cccc(OCc2ccccc2)c1 [Compound 89.11, 2,2-Difluoro-6-[3-(benzyloxy)phenoxy]-1-(pyridin-3-yl)-hexan-1-one] | inhibition at 0.1 µM ([1]; one-point assay): 85%
– | – | 86% | O=C(CCCCCCOc1ccccc1)C(F)(F)c1ccccn1 [Compound 96.1, 1,1-Difluoro-8-phenoxy-1-(pyridin-2-yl)octan-2-one] | –
